Assay results from US12448388B2, “PRMT5 inhibitors and uses thereof” (Gilead Sciences, Inc., priority 2023, dated 2025).
Where two headings read alike, the source gives them in different places.

Tested on: HCT116 MTAP-deleted cell lines
Experiment: Cell viability assay (CellTiter-Glo, 7 days), HCT116 MTAP-deleted
Format: cell-based
Conditions: Homo sapiens, HCT-116, HCT116 MTAP-deleted, class symbols, read-out: CC50
Procedure, shortened: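 Read-out was CellTiter-Glo luminescence after a 7-day incubation (37 °C, 5% CO2) of HCT116 cells, MTAP-deleted or WT, on dose-response compound plates. CC50 values come from each line; where marked *, selectivity is overstated because poor solubility impaired the WT CC50 measurement.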

SMILES | CC50 (cell viability) [µM] | CC50 (cell viability assay) [µM]
Cn1ccc(N(Cc2ncc(C(F)(F)F)cc2F)C(=O)c2cc3c(cc2F)nc(N)c2cncn23)n1 [Ff-307, 4-amino-7-fluoro-N-((3-fluoro-5-(trifluoromethyl)pyridin-2-yl)methyl)-N-(1-methyl-1H-pyrazol-3-yl)imidazo[1,5-a]quinoxaline-8-carboxamide] | < 0.1 | 
CN(C(=O)c1cc2c(cc1F)nc(N)c1cncn12)[C@@H]1COc2cc(C#CC3(C(F)(F)F)CC3)ccc21 [Ff-522, (S)-4-amino-7-fluoro-N-methyl-N-(6-((1-(trifluoromethyl)cyclopropyl)ethynyl)-2,3-dihydrobenzofuran-3-yl)imidazo[1,5-a]quinoxaline-8-carboxamide] |  | 0.1 to 1
Nc1nc2cc(F)c(C(=O)N(Cc3ccc(-c4ccnn4C(F)(F)F)cc3F)C34CC(C3)C4)cc2n2cncc12 [Ff-218, 4-amino-N-(bicyclo[1.1.1]pentan-1-yl)-7-fluoro-N-(2-fluoro-4-(1-(trifluoromethyl)-1H-pyrazol-5-yl)benzyl)imidazo[1,5-a]quinoxaline-8-carboxamide] | < 0.1 | 
Cn1cc(N(Cc2ccc(-c3cnn(C(F)(F)F)c3)cc2F)C(=O)c2cc3c(cc2F)nc(N)c2cncn23)cn1 [Ff-220, 4-amino-7-fluoro-N-(2-fluoro-4-(1-(trifluoromethyl)-1H-pyrazol-4-yl)benzyl)-N-(1-methyl-1H-pyrazol-4-yl)imidazo[1,5-a]quinoxaline-8-carboxamide] | < 0.1 | 
Nc1nc2cc(F)c(C(=O)N3CCC[C@@H]4Oc5cc(C(F)(F)F)ccc5[C@@H]43)cc2n2c(F)ncc12 [Ff-622, (4-amino-1,7-difluoroimidazo[1,5-a]quinoxalin-8-yl)((4aS,9bS)-7-(trifluoromethyl)-3,4,4a,9b-tetrahydrobenzofuro[3,2-b]pyridin-1(2H)-yl)methanone] |  | < 0.1
Nc1nc2cc(F)c(C(=O)N3CCO[C@@H]4Cc5c(cc(F)c(Br)c5F)[C@@H]43)cc2n2cncc12 [Ff-161, (4-amino-7-fluoroimidazo[1,5-a]quinoxalin-8-yl)((4aS,9aR)-7-bromo-6,8-difluoro-2,3,9,9a-tetrahydroindeno[2,1-b][1,4]oxazin-4(4aH)-yl)methanone] | 0.1 to 1 | 
CN(C(=O)c1cc2c(cc1F)nc(N)c1cncn12)[C@@H]1COc2cc(C(F)F)c(Cl)cc21 [Ff-653, (S)-4-amino-N-(5-chloro-6-(difluoromethyl)-2,3-dihydrobenzofuran-3-yl)-7-fluoro-N-methylimidazo[1,5-a]quinoxaline-8-carboxamide] |  | < 0.1
CC(C)N(Cc1ccc(-c2ccc(OC(F)F)cc2)cc1F)C(=O)c1cc2c(cc1F)nc(N)c1cncn12 [Ff-591, 4-amino-N-((4′-(difluoromethoxy)-3-fluoro-[1,1′-biphenyl]-4-yl)methyl)-7-fluoro-N-isopropylimidazo[1,5-a]quinoxaline-8-carboxamide] |  | < 0.1
COc1cc2c(cc1F)[C@H]1[C@H](CCCN1C(=O)c1cc3c(cc1F)nc(N)c1cncn13)OC2 (racemic) [Ff-300, Rac-(4-amino-7-fluoroimidazo[1,5-a]quinoxalin-8-yl)((4aS,10bS)-9-fluoro-8-methoxy-2,3,4,4a,6,10b-hexahydro-1H-isochromeno[4,3-b]pyridin-1-yl)methanone] | < 0.1 | 
C[C@H]1CN(C(=O)c2cc3c(cc2F)nc(N)c2cncn23)[C@H]2c3cc(F)c(OC(F)F)cc3C[C@H]2O1 [Ff-175, (4-amino-7-fluoroimidazo[1,5-a]quinoxalin-8-yl)((2S,4aS,9aR)-7-(difluoromethoxy)-6-fluoro-2-methyl-2,3,9,9a-tetrahydroindeno[2,1-b][1,4]oxazin-4(4aH)-yl)methanone] | < 0.1 | 
Cc1ncn2c1c(N)nc1cnc(C(=O)N3[C@@H]4c5ccc(C(F)(F)F)cc5O[C@@H]4CC[C@@H]3C)cc12 (single isomer, unassigned) [Ff-612] |  | 0.1 to 1
Cc1ncn2c1c(N)nc1cc(F)c(C(=O)N3C[C@@H](C)O[C@@H]4Cc5cc(C(F)(F)F)ccc5[C@@H]43)cc12 [Fg-34, (4-amino-7-fluoro-3-methylimidazo[1,5-a]quinoxalin-8-yl)((2R,4aS,9aR)-2-methyl-7-(trifluoromethyl)-2,3,9,9a-tetrahydroindeno[2,1-b][1,4]oxazin-4(4aH)-yl)methanone] |  | < 0.1
Nc1nc2cc(F)c(C(=O)N3CC[C@H]4C[C@@H]3c3ccc(Cl)nc34)cc2n2cncc12 [Ff-595, (4-amino-7-fluoroimidazo[1,5-a]quinoxalin-8-yl)((5R,9S)-2-chloro-5,7,8,9-tetrahydro-6H-5,9-methanopyrido[3,2-c]azepin-6-yl)methanone] |  | 0.1 to 1
Cc1ncc2c(N)nc3cc(Cl)c(C(=O)N4CCC[C@@H]5Oc6nc(C(F)(F)F)ccc6[C@@H]54)cc3n12 (racemic) [Ff-334, Rac-4-amino-7-chloro-1-methylimidazo[1,5-a]quinoxalin-8-yl)((4aS,9bS)-7-(trifluoromethyl)-3,4,4a,9b-tetrahydrofuro[2,3-b:4,5-b′]dipyridin-1(2H)-yl)methanone] | < 0.1 | 
CN(C(=O)c1cc2c(cc1F)nc(N)c1cncn12)[C@@H]1COc2cc([C@@H]3C[C@H]3C#N)c(F)cc21 [Ff-438, Trans-4-amino-N-[(3S)-6-(2-cyanocyclopropyl)-5-fluoro-2,3-dihydrobenzofuran-3-yl]-7-fluoro-N-methyl-imidazo[1,5-a]quinoxaline-8-carboxamide] |  | < 0.1
CN(C(=O)c1cc2c(cc1F)nc(N)c1cncn12)[C@@H]1COc2cc(C#N)ccc21 [Ff-269, (S)-4-amino-N-(6-cyano-2,3-dihydrobenzofuran-3-yl)-7-fluoro-N-methylimidazo[1,5-a]quinoxaline-8-carboxamide] | < 0.1 | 
Nc1nc2cc(Cl)c(C(=O)N3CC[C@@H]4C[C@H]3c3ccc(Cl)cc34)cc2n2cncc12 [Ff-487, (4-amino-7-chloroimidazo[1,5-a]quinoxalin-8-yl)((1S,5R)-7-chloro-1,3,4,5-tetrahydro-2H-1,5-methanobenzo[c]azepin-2-yl)methanone] |  | 0.1 to 1
Nc1nc2cc(F)c(C(=O)N3CC[C@H]4C[C@@H]3c3cc(F)c(C(F)(F)F)cc3O4)cc2n2cncc12 [Ff-636, (4-amino-7-fluoroimidazo[1,5-a]quinoxalin-8-yl)((2S,6R)-8-fluoro-9-(trifluoromethyl)-3,4-dihydro-2H-2,6-methanobenzo[b][1,5]oxazocin-5(6H)-yl)methanone] |  | < 0.1
CC1COC2Cc3cc(C(F)(F)F)ccc3C2N1C(=O)c1cc2c(cc1F)nc(N)c1cncn12 (racemic) [Ff-85, (4-amino-7-fluoroimidazo[1,5-a]quinoxalin-8-yl)(3-methyl-7-(trifluoromethyl)-2,3,9,9a-tetrahydroindeno[2,1-b][1,4]oxazin-4(4aH)-yl)methanone] | < 0.1 | 
CC(C)N(Cc1ccc(Oc2ccccc2)cc1)C(=O)c1ccc2nc(N)c3cncn3c2c1 [Ff-57, 4-amino-N-isopropyl-N-(4-phenoxybenzyl)imidazo[1,5-a]quinoxaline-8-carboxamide] | 0.1 to 1 | 
CN(Cc1ccc2c(c1)OC(F)(F)O2)C(=O)c1cc2c(cc1F)nc(N)c1cncn12 [Ff-124, 4-amino-N-((2,2-difluorobenzo[d][1,3]dioxol-5-yl)methyl)-7-fluoro-N-methylimidazo[1,5-a]quinoxaline-8-carboxamide] | 0.1 to 1 | 
CC(=O)N(C)N(Cc1ccn(-c2ccc(F)cc2F)n1)C(=O)c1cc2c(cc1F)nc(N)c1cncn12 [Fb-16, N′-acetyl-4-amino-N-((1-(2,4-difluorophenyl)-1H-pyrazol-3-yl)methyl)-7-fluoro-N′-methylimidazo[1,5-a]quinoxaline-8-carbohydrazide] | 0.1 to 1 | 
Cc1ncn2c1c(N)nc1cnc(C(=O)N3CCC[C@@H]4Oc5cc(OC(F)(F)F)c(F)cc5[C@@H]43)cc12 [Fg-32, (4-amino-3-methylimidazo[1,5-a]pyrido[3,4-e]pyrazin-8-yl)((4aS,9bS)-8-fluoro-7-(trifluoromethoxy)-3,4,4a,9b-tetrahydrobenzofuro[3,2-b]pyridin-1(2H)-yl)methanone] |  | < 0.1
CN(C(=O)c1cc2c(cc1F)nc(N)c1cncn12)[C@@H]1COc2cc(-c3cnn(C(F)(F)F)c3)ccc21 [Ff-95, (S)-4-amino-7-fluoro-N-methyl-N-(6-(1-(trifluoromethyl)-1H-pyrazol-4-yl)-2,3-dihydrobenzofuran-3-yl)imidazo[1,5-a]quinoxaline-8-carboxamide] | < 0.1 | 
CC(C)N(Cc1ccc(F)cc1Cl)C(=O)c1ccc2nc(N)c3cncn3c2c1 [Ff-72, 4-amino-N-(2-chloro-4-fluorobenzyl)-N-isopropylimidazo[1,5-a]quinoxaline-8-carboxamide] | 0.1 to 1 | 
Cc1ncn2c1c(N)nc1cc(F)c(C(=O)N3CCC[C@@H]4Oc5nc(C(F)(F)F)ccc5[C@@H]43)cc12 [Ff-362, (4-amino-7-fluoro-3-methylimidazo[1,5-a]quinoxalin-8-yl)((4aS,9bS)-7-(trifluoromethyl)-3,4,4a,9b-tetrahydrofuro[2,3-b:4,5-b′]dipyridin-1(2H)-yl)methanone] | < 0.1 | 
Cc1ncn2c1c(N)nc1ccc(C(=O)N3C[C@@H](F)C[C@@H]4Oc5cc(OC(F)(F)F)ccc5[C@@H]43)cc12 [Fg-47, (4-amino-3-methylimidazo[1,5-a]quinoxalin-8-yl)((3S,4aS,9bS)-3-fluoro-7-(trifluoromethoxy)-3,4,4a,9b-tetrahydrobenzofuro[3,2-b]pyridin-1(2H)-yl)methanone] |  | < 0.1
CN(C(=O)c1cc2c(cn1)nc(N)c1cncn12)[C@@H](c1ccc(OC(F)(F)F)cc1F)C(F)F [Fb-12, (S)-4-amino-N-(2,2-difluoro-1-(2-fluoro-4-(trifluoromethoxy)phenyl)ethyl)-N-methylimidazo[1,5-a]pyrido[3,4-e]pyrazine-8-carboxamide] | 0.1 to 1 | 
Nc1nc2cc(F)c(C(=O)N3CC(C(F)(F)F)OCC3c3ccc(C(F)(F)F)cn3)cc2n2cncc12 (centres unmarked) [Ff-401] |  | 0.1 to 1
